Assay results as given in patent publication US20020035061A1, “COMPOSITIONS AND METHODS FOR TREATING INFECTIONS USING CATIONIC PEPTIDES ALONE OR IN COMBINATION WITH ANTIBIOTICS” (priority 1996, published 2002).

System: bacterial isolates
Assay: microbe, parasite or virus in culture
Type: cell-based

KWKSFIKKLTSAAKKVVTTAKPLISS [MBI 26]
Peptide MIC Alone (P. aeruginosa PA4, Mupirocin section): >128 µg/mL | Ceftriaxone MIC + Peptide (P. aeruginosa PA008): 8 µg/mL | Peptide MIC + Ceftriaxone (P. aeruginosa PA008): 0.125 µg/mL | Ceftriaxone MIC + Peptide (P. aeruginosa PA024): 4 µg/mL | Peptide MIC + Ceftriaxone (P. aeruginosa PA024): 32 µg/mL | Gentamicin MIC + Peptide (P. aeruginosa PA041): 1 µg/mL | Peptide MIC + Gentamicin (P. aeruginosa PA041): 32 µg/mL | Ciprofloxacin MIC + Peptide (P. aeruginosa PA41): 1 µg/mL | Peptide MIC + Ciprofloxacin (P. aeruginosa PA41): 32 µg/mL | Ciprofloxacin MIC + Peptide (P. aeruginosa PA77): 0.125 µg/mL | Peptide MIC + Ciprofloxacin (P. aeruginosa PA77): 64 µg/mL | Peptide MIC + Piperacillin (S. aureus 19 MRSA): 1 µg/mL | Piperacillin MIC + Peptide (S. aureus 19 MRSA): 16 µg/mL | Peptide MIC Alone (S. aureus 19 MRSA, Piperacillin section): 32 µg/mL | Ciprofloxacin MIC + Peptide (S. aureus SA11): 32 µg/mL | Peptide MIC + Ciprofloxacin (S. aureus SA11): 0.125 µg/mL | Ceftriaxone MIC + Peptide (S. aureus SA025 MRSA): 0.125 µg/mL | Peptide MIC + Ceftriaxone (S. aureus SA025 MRSA): 0.5 µg/mL | FIC (S. aureus SA044, combination with Ciprofloxacin): 0.63 | FIC (S. aureus SA7609, combination with Clindamycin): 0.25 | FIC (S. aureus SA7609, combination with Methicillin): 0.56 | FIC (S. aureus SA7610, combination with Clindamycin): 0.63 | FIC (S. aureus SA7610, combination with Methicillin): 0.31 | FIC (S. aureus SA7795, combination with Ampicillin): 0.52 | FIC (S. aureus SA7795, combination with Clindamycin): 0.53 | FIC (S. aureus SA7796, combination with Ampicillin): 1.00 | FIC (S. aureus SA7796, combination with Clindamycin): 0.51 | FIC (S. aureus SA7817, combination with Ampicillin): 0.50 | FIC (S. aureus SA7818, combination with Ampicillin): 1.00 | FIC (S. aureus SA7818, combination with Erythromycin): 0.15 | FIC (S. aureus SA7821, combination with Erythromycin): 0.50 | FIC (S. aureus SA7822, combination with Ampicillin): 0.25 | FIC (S. aureus SA7823, combination with Ampicillin): 0.25 | FIC (S. aureus SA7824, combination with Ampicillin): 1.00 | FIC (S. aureus SA7825, combination with Ampicillin): 1.00 | FIC (S. aureus SA7825, combination with Erythromycin): 1.00 | FIC (S. aureus SA7834, combination with Ampicillin): 0.53 | FIC (S. aureus SA7834, combination with Clindamycin): 0.56 | FIC (S. aureus SA7835, combination with Ampicillin): 0.53 | FIC (S. aureus SA7836, combination with Ampicillin): 0.75 | FIC (S. aureus SA7837, combination with Ampicillin): 1.00 | FIC (S. aureus SAATCC25293, combination with Methicillin): 0.50 | FIC (S. aureus SAATCC29213, combination with Methicillin): 0.31 | FIC (S. aureus SAW1133, combination with Methicillin): 0.75 | Peptide MIC + Piperacillin (S. aureus SB3MRSA): 16 µg/mL | Piperacillin MIC + Peptide (S. aureus SB3MRSA): 64 µg/mL | Peptide MIC Alone (S. aureus SB3MRSA, Piperacillin section): >128 µg/mL | Mupirocin MIC + Peptide (S. aureus SBSA4): 30 µg/mL | Peptide MIC + Mupirocin (S. aureus SBSA4): 8 µg/mL | Peptide MIC Alone (S. aureus SBSA4, Mupirocin section): 32 µg/mL | Ceftriaxone MIC + Peptide (S. epidermidis SE007): 2 µg/mL | Peptide MIC + Ceftriaxone (S. epidermidis SE007): 0.5 µg/mL | Ceftriaxone MIC + Peptide (S. epidermidis SE012): 16 µg/mL | Peptide MIC + Ceftriaxone (S. epidermidis SE012): 1 µg/mL | Peptide MIC + Tobramycin (S. epidermidis SE067): 0.25 µg/mL | Peptide MIC Alone (S. epidermidis SE067): 2 µg/mL | Tobramycin MIC + Peptide (S. epidermidis SE067): 64 µg/mL | Peptide MIC + Tobramycin (S. epidermidis SE068): 0.5 µg/mL | Peptide MIC Alone (S. epidermidis SE068): 2 µg/mL | Tobramycin MIC + Peptide (S. epidermidis SE068): 4 µg/mL | FIC (S. epidermidis SE8406, combination with Clindamycin): 0.50 | FIC (S. epidermidis SE8416, combination with Clindamycin): 0.56 | FIC (S. epidermidis SE8505, combination with Ampicillin): 1.00 | FIC (S. epidermidis SE8565, combination with Ampicillin): 1.00 | FIC (S. haemolyticus SH8459, combination with Ampicillin): 0.52 | FIC (S. haemolyticus SH8472, combination with Ampicillin): 0.56 | FIC (S. haemolyticus SH8563, combination with Ampicillin): 0.75 | FIC (S. haemolyticus SH8564, combination with Ampicillin): 0.62 | FIC (S. haemolyticus SH8575, combination with Ampicillin): 0.75 | FIC (S. haemolyticus SH8576, combination with Ampicillin): 0.62 | FIC (S. haemolyticus SH8578, combination with Ampicillin): 1.00 | Peptide MIC + Piperacillin (S. maltophilia 3): 4 µg/mL | Piperacillin MIC + Peptide (S. maltophilia 3): 32 µg/mL | Peptide MIC Alone (S. maltophilia 3, Piperacillin section): 16 µg/mL | Ciprofloxacin MIC + Peptide (S. maltophilia 34): 0.25 µg/mL | Peptide MIC + Ciprofloxacin (S. maltophilia 34): 8 µg/mL | Peptide MIC + Piperacillin (S. maltophilia 34): 16 µg/mL | Piperacillin MIC + Peptide (S. maltophilia 34): 4 µg/mL | Peptide MIC Alone (S. maltophilia 34, Piperacillin section): >32 µg/mL | Ciprofloxacin MIC + Peptide (S. maltophilia 35): 0.5 µg/mL | Peptide MIC + Ciprofloxacin (S. maltophilia 35): 16 µg/mL | Peptide MIC + Piperacillin (S. maltophilia 35): 16 µg/mL | Piperacillin MIC + Peptide (S. maltophilia 35): 4 µg/mL | Peptide MIC Alone (S. maltophilia 35, Piperacillin section): >32 µg/mL | Gentamicin MIC + Peptide (S. maltophilia SMA016): 32 µg/mL | Peptide MIC + Gentamicin (S. maltophilia SMA016): 32 µg/mL | Gentamicin MIC + Peptide (S. maltophilia SMA017): 16 µg/mL | Peptide MIC + Gentamicin (S. maltophilia SMA017): 2 µg/mL | Ceftriaxone MIC + Peptide (S. maltophilia SMA019): 64 µg/mL | Peptide MIC + Ceftriaxone (S. maltophilia SMA019): 1 µg/mL | Ceftriaxone MIC + Peptide (S. maltophilia SMA020): 32 µg/mL | Peptide MIC + Ceftriaxone (S. maltophilia SMA020): 1 µg/mL | Amikacin MIC + Peptide (S. maltophilia SMA021): 8 µg/mL | Peptide MIC + Amikacin (S. maltophilia SMA021): 2 µg/mL | Peptide MIC + Tobramycin (S. maltophilia SMA029): 4 µg/mL | Peptide MIC Alone (S. maltophilia SMA029): >128 µg/mL | Tobramycin MIC + Peptide (S. maltophilia SMA029): 4 µg/mL | Peptide MIC + Tobramycin (S. maltophilia SMA030): 4 µg/mL | Peptide MIC Alone (S. maltophilia SMA030): >128 µg/mL | Tobramycin MIC + Peptide (S. maltophilia SMA030): 4 µg/mL | Amikacin MIC + Peptide (S. maltophilia SMA037): 16 µg/mL | Peptide MIC + Amikacin (S. maltophilia SMA037): 16 µg/mL | Peptide MIC + Piperacillin (S. marcescens 1): 0.5 µg/mL | Piperacillin MIC + Peptide (S. marcescens 1): 32 µg/mL | Peptide MIC Alone (S. marcescens 1, Piperacillin section): >128 µg/mL | FIC (peptide + Amikacin, A. baumannii ABI001): 0.50 | FIC (peptide + Amikacin, A. baumannii ABI003): 0.38 | FIC (peptide + Amikacin, S. maltophilia SMA021): 0.13 | FIC (peptide + Amikacin, S. maltophilia SMA037): 0.19 | FIC (peptide + Ceftriaxone, A. baumannii ABI002): 0.50 | FIC (peptide + Ceftriaxone, A. baumannii ABI005): 0.56 | FIC (peptide + Ceftriaxone, B. cepacia BC003): 0.50 | FIC (peptide + Ceftriaxone, E. cloacae ECL014): 0.50 | FIC (peptide + Ceftriaxone, E. cloacae ECL015): 0.19 | FIC (peptide + Ceftriaxone, K. pneumoniae KP003): 0.56 | FIC (peptide + Ceftriaxone, P. aeruginosa PA008): 0.13 | FIC (peptide + Ceftriaxone, P. aeruginosa PA024): 0.50 | FIC (peptide + Ceftriaxone, S. aureus SA025 MRSA): 0.52 | FIC (peptide + Ceftriaxone, S. epidermidis SE007): 0.27 | FIC (peptide + Ceftriaxone, S. epidermidis SE012): 0.27 | FIC (peptide + Ceftriaxone, S. maltophilia SMA019): 0.50 | FIC (peptide + Ceftriaxone, S. maltophilia SMA020): 0.38 | FIC (peptide + Ciprofloxacin, A. calcoaceticus 1): 0.51 | FIC (peptide + Ciprofloxacin, A. calcoaceticus 6): 0.50 | FIC (peptide + Ciprofloxacin, E. cloacae 13): 0.27 | FIC (peptide + Ciprofloxacin, E. cloacae 15): 0.38 | FIC (peptide + Ciprofloxacin, E. cloacae 16): 0.38 | FIC (peptide + Ciprofloxacin, P. aeruginosa 23): 0.53 | FIC (peptide + Ciprofloxacin, P. aeruginosa 24): 0.53 | FIC (peptide + Ciprofloxacin, P. aeruginosa PA41): 0.50 | FIC (peptide + Ciprofloxacin, P. aeruginosa PA77): 0.56 | FIC (peptide + Ciprofloxacin, S. aureus SA11): 0.50 | FIC (peptide + Ciprofloxacin, S. maltophilia 34): 0.25 | FIC (peptide + Ciprofloxacin, S. maltophilia 35): 0.50 | FIC (peptide + Gentamicin, A. baumannii ABI001): 0.50 | FIC (peptide + Gentamicin, A. baumannii ABI002): 0.53 | FIC (peptide + Gentamicin, P. aeruginosa PA041): 0.63 | FIC (peptide + Gentamicin, S. maltophilia SMA016): 0.25 | FIC (peptide + Gentamicin, S. maltophilia SMA017): 0.38 | FIC (peptide + Mupirocin, E. coli ECO5): 0.43 | FIC (peptide + Mupirocin, E. coli SBECO2): 0.16 | FIC (peptide + Mupirocin, P. aeruginosa PA2): 0.51 | FIC (peptide + Mupirocin, P. aeruginosa PA4): 0.23 | FIC (peptide + Mupirocin, S. aureus SBSA4): 0.28 | FIC (peptide + Piperacillin, A. calcoaceticus 7): 0.25 | FIC (peptide + Piperacillin, A. calcoaceticus 8): 0.19 | FIC (peptide + Piperacillin, E. cloacae 13): 0.16 | FIC (peptide + Piperacillin, H. influenzae 1): 0.53 | FIC (peptide + Piperacillin, H. influenzae 2): 0.51 | FIC (peptide + Piperacillin, P. aeruginosa 7): 0.25 | FIC (peptide + Piperacillin, P. aeruginosa 23): 0.27 | FIC (peptide + Piperacillin, P. aeruginosa 28): 0.14 | FIC (peptide + Piperacillin, P. aeruginosa 41): 0.53 | FIC (peptide + Piperacillin, S. aureus 19 MRSA): 0.16 | FIC (peptide + Piperacillin, S. aureus SB3MRSA): 0.31 | FIC (peptide + Piperacillin, S. maltophilia 3): 0.50 | FIC (peptide + Piperacillin, S. maltophilia 34): 0.25 | FIC (peptide + Piperacillin, S. maltophilia 35): 0.26 | FIC (peptide + Piperacillin, S. marcescens 1): 0.50 | FIC (peptide + Tobramycin, S. epidermidis SE067): 0.38 | FIC (peptide + Tobramycin, S. epidermidis SE068): 0.27 | FIC (peptide + Tobramycin, S. maltophilia SMA029): 0.05 | FIC (peptide + Tobramycin, S. maltophilia SMA030): 0.05 | FIC (peptide + Vancomycin, E. faecalis EFS005): 0.31 | FIC (peptide + Vancomycin, E. faecalis EFS012): 0.07 | FIC (peptide + Vancomycin, E. faecalis EFS013): 0.07 | FIC (peptide + Vancomycin, E. faecium EFM010): 0.31 | FIC (peptide + Vancomycin, E. faecium EFM011): 0.31
